Measured values published in patent US10842779B2, “Heterocyclic compounds and their use in preventing or treating bacterial infections” (priority 2015, dated 2020).
Where two headings read alike, the source gives them in different places.

Columns and labels:
Test in all cases: MIC of compounds alone, broth microdilution
Format in all cases: cell-based
M. morganii = conditions: Morganella morganii, MMO 200321, beta-lactamases TEM-1, CTX-M-15 OXA-1
Experimental: (§1) Method 2: MIC of Compounds and Synergy with Ceftazidime Against Bacterial Isolates (Table 2 and 3)
(§2) Compounds of the present invention were assessed against genotyped bacterial strains alone or in combination with the β-lactam ceftazidime. In the assays, MICs of said compounds, or of ceftazidime at fixed concentrations of said compounds were determined by the broth microdilution method according to the Clinical Laboratory Standards Institute (CLSI—M7-A7). Briefly, compounds alone according to the invention were prepared in DMSO and spotted (2 μL each) on sterile polystyrene plates (Corning, 3788). Compounds and ceftazidime dilutions were prepared in DMSO and spotted (1 μL each) on sterile polystyrene plates (Corning, 3788). Log phase bacterial suspensions were adjusted to a final density of 5×10^5 cfu/mL in cation-adjusted Mueller-Hinton broth (Beckton-Dickinson) and added to each well (98 μL). Microplates were incubated for 16-20 h at 35° C. in ambient air. The MIC of the compounds was defined as the lowest concentration of said compounds that prevented bacterial growth as read by visual inspection. The MIC of ceftazidime at each compound concentration was defined as the lowest concentration of ceftazidime that prevented bacterial growth as read by visual inspection.

P. mirabilis = conditions: Proteus mirabilis, PMI UFR82, beta-lactamases CMY-2
Experimental: as §1, §2

K. oxytoca = conditions: Klebsiella oxytoca; alone; KOX UFR21; beta-lactamases TEM-1, CTX-M-15 OXA-48; read-out: MIC
Experimental: as §1, §2

C. freundii = conditions: Citrobacter freundii, alone, read-out: MIC
Experimental: as §1, §2

P. aeruginosa = conditions: Pseudomonas aeruginosa, alone, read-out: MIC
Experimental: as §1, §2

E. cloacae = conditions: Enterobacter cloacae
Experimental: as §1, §2

K. pneumoniae = conditions: Klebsiella pneumoniae, read-out: MIC
Experimental: as §1, §2

E. aerogenes = conditions: Klebsiella aerogenes; alone; EAE 200261; beta-lactamases TEM-x AmpC; read-out: MIC
Experimental: as §1, §2

E. coli = conditions: Escherichia coli
Experimental: as §1, §2

S. marcescens = conditions: Serratia marcescens, SMA UFR30, beta-lactamases OXA-405
Experimental: as §1, §2

C. murliniae = conditions: alone; CMU 210102; beta-lactamases VIM-4; read-out: MIC
Experimental: as §1, §2

Work on `O=C(O)C(F)(F)F.O=C1N2C[C@H](c3scnc3[C@H]2c2ncc[nH]2)N1OS(=O)(=O)[O-].[Na+]` (relative stereo) [Example 1, Sodium and 2,2,2-trifluoroacetate [trans-7-(1H-imidazol-3-ium-2-yl)-9-oxo-3-thia-5,8,10-triaza-tricyclo[6.2.1.0^2,6]undeca-2(6),4-dien-10-yl]sulfate] yielded an MIC (M. morganii) of 32 µg/mL, an MIC (P. mirabilis) of 32 µg/mL and an MIC (K. oxytoca) of 4 µg/mL. The MIC (C. freundii; CFR UFR10, beta-lactamases OXA-48) was 1 µg/mL, the MIC (C. freundii; CFR UFR11, beta-lactamases TEM-1 OXA-1 OXA-48) was 8 µg/mL and the MIC (C. freundii; CFR UFR37, beta-lactamases TEM-1, CTX-M-15 NDM-1) was 2 µg/mL. For the same molecule, the MIC (P. aeruginosa; PAE CIP107051, beta-lactamases TEM-24) was over 32 µg/mL, the MIC (P. aeruginosa; PAE MUS, beta-lactamases OXA-20 OXA-18) was over 32 µg/mL and the MIC (E. cloacae; ECL 2185D, beta-lactamases OXA-163, read-out: MIC) was 8 µg/mL. For the same molecule, the MIC (E. cloacae; ECL 190310, beta-lactamases AmpC, read-out: MIC) was 4 µg/mL, the MIC (E. cloacae; ECL 190408, beta-lactamases TEM-1, CTX-M-15 OXA-1, read-out: MIC) was 0.5 µg/mL and the MIC (E. cloacae; ECL 200138, beta-lactamases AmpC, read-out: MIC) was 8 µg/mL. The MIC (E. cloacae; ECL 200322, beta-lactamases TEM-1, CTX-M-15 OXA-1, read-out: MIC) was 1 µg/mL, the MIC (E. cloacae; ECL 260033, beta-lactamases AmpC, read-out: MIC) was 8 µg/mL and the MIC (E. cloacae; ECL 260253, beta-lactamases TEM-1 KPC-3, read-out: MIC) was 8 µg/mL. For the same molecule, the MIC (E. cloacae; ECL 260323, beta-lactamases AmpC, read-out: MIC) was 4 µg/mL, the MIC (E. cloacae; ECL 260508, beta-lactamases TEM-1, CTX-M-15, read-out: MIC) was 1 µg/mL and the MIC (E. cloacae; ECL HAN, beta-lactamases OXA-35, read-out: MIC) was 8 µg/mL. The MIC (E. cloacae; ECL NEM146383, beta-lactamases AmpC, read-out: MIC) was 2 µg/mL, the MIC (E. cloacae; ECL P99, beta-lactamases AmpC, read-out: MIC) was 4 µg/mL and the MIC (E. cloacae; ECL UFR12, beta-lactamases CTX-M-9 OXA-48, read-out: MIC) was 2 µg/mL. It also gave an MIC (E. cloacae; ECL UFR13, beta-lactamases TEM-1, SHV-12, CTX-M-9 OXA-48, read-out: MIC) of 2 µg/mL, an MIC (E. cloacae; ECL UFR14, beta-lactamases TEM-1, SHV-12, CTX-M-15 DHA-1 OXA-1 OXA-48, read-out: MIC) of 8 µg/mL and an MIC (E. cloacae; ECL UFR38, beta-lactamases CTX-M-15 NDM-1, read-out: MIC) of 1 µg/mL. For the same molecule, the MIC (E. cloacae; ECL UFR51, beta-lactamases SHV-12 IMP-8, read-out: MIC) was 0.5 µg/mL, the MIC (E. cloacae; ECL UFR60, beta-lactamases TEM-1, CTX-M-15 KPC-2, read-out: MIC) was 8 µg/mL and the MIC (E. cloacae; ECL UFR70, beta-lactamases TEM-1, CTX-M-15 CMY-2 OXA-1, read-out: MIC) was 1 µg/mL. The MIC (E. cloacae; ECL UFR84, beta-lactamases TEM-1 AmpC OXA-1, read-out: MIC) was 8 µg/mL, the MIC (E. cloacae; ECL UFR85, beta-lactamases TEM-1, CTX-M-15 AmpC, read-out: MIC) was 2 µg/mL and the MIC (K. pneumoniae; BAA1898, alone, KPN BAA-1898, beta-lactamases TEM-1, SHV-11, SHV-12 KPC-2) was 4 µg/mL. For the same molecule, the MIC (K. pneumoniae; alone, KPN 6299, beta-lactamases TEM-1, SHV-11 OXA-163) was 16 µg/mL, the MIC (K. pneumoniae; alone, KPN 110376, beta-lactamases TEM-1, SHV-1, CTX-M-15 OXA-1 OXA-48) was 2 µg/mL and the MIC (K. pneumoniae; alone, KPN 131119, beta-lactamases TEM-1, SHV-11, CTX-M-15 OXA-1 OXA-48) was 4 µg/mL. For the same molecule, the MIC (K. pneumoniae; alone, KPN 160143, beta-lactamases TEM-1, SHV-1, CTX-M-15 KPC-2 OXA-1) was 4 µg/mL, the MIC (K. pneumoniae; alone, KPN 190128, beta-lactamases TEM-1, SHV-32, CTX-M-15 OXA-1) was 4 µg/mL and the MIC (K. pneumoniae; alone, KPN 190270, beta-lactamases TEM-1, SHV-76, CTX-M-15 OXA-1) was 8 µg/mL. For the same molecule, the MIC (K. pneumoniae; alone, KPN 190425, beta-lactamases TEM-1, SHV-1, CTX-M-15 OXA-1) was 4 µg/mL, the MIC (K. pneumoniae; alone, KPN 190551, beta-lactamases TEM-1, SHV-1, CTX-M-15 OXA-1) was 2 µg/mL and the MIC (K. pneumoniae; alone, KPN 200047, beta-lactamases TEM-1, SHV-32, CTX-M-15 OXA-1) was 2 µg/mL. It also gave an MIC (K. pneumoniae; alone, KPN 200327, beta-lactamases TEM-1, SHV-1, CTX-M-15 OXA-1) of 2 µg/mL, an MIC (K. pneumoniae; alone, KPN 260251, beta-lactamases TEM-1, SHV-11, SHV-12, CTX-M-15 KPC-2) of 4 µg/mL and an MIC (K. pneumoniae; alone, KPN 260252, beta-lactamases TEM-1, SHV-11 KPC-3) of over 32 µg/mL. For the same molecule, the MIC (K. pneumoniae; alone, KPN 260376, beta-lactamases SHV-1, SHV-49 OXA-1) was 2 µg/mL, the MIC (K. pneumoniae; alone, KPN 270077, beta-lactamases TEM-1, SHV-1, CTX-M-15) was 8 µg/mL and the MIC (K. pneumoniae; alone, KPN 700603, beta-lactamases SHV-18 OXA-2) was 4 µg/mL. It also gave an MIC (K. pneumoniae; alone, KPN 6122012, beta-lactamases SHV-1 NDM-1) of 8 µg/mL, an MIC (K. pneumoniae; alone, KPN ARA, beta-lactamases TEM-1, SHV-11, CTX-M-15 OXA-1 OXA-48) of 4 µg/mL and an MIC (K. pneumoniae; alone, KPN LIB, beta-lactamases SHV-11 OXA-48) of 2 µg/mL. For the same molecule, the MIC (K. pneumoniae; alone, KPN UFR22_O, beta-lactamases TEM-1, SHV-1 OXA-48) was 4 µg/mL, the MIC (K. pneumoniae; alone, KPN UFR24, beta-lactamases TEM-1, SHV-2, SHV-11 OXA-1 OXA-48 OXA-47) was 8 µg/mL and the MIC (K. pneumoniae; alone, KPN UFR25, beta-lactamases TEM-1, SHV-11, CTX-M-15 OXA-162) was 2 µg/mL. The MIC (K. pneumoniae; alone, KPN UFR27, beta-lactamases TEM-1, SHV-28, CTX-M-15 OXA-204) was 4 µg/mL, the MIC (K. pneumoniae; alone, KPN UFR28, beta-lactamases TEM-1, SHV-1, CTX-M-15 OXA-1 OXA-232) was 2 µg/mL and the MIC (K. pneumoniae; alone, KPN UFR42, beta-lactamases SHV-2, CTX-M-15 OXA-1 OXA-181 NDM-1) was 4 µg/mL. The MIC (K. pneumoniae; alone, KPN UFR43, beta-lactamases SHV-11, CTX-M-15 CMY-2 OXA-1 NDM-1) was 16 µg/mL, the MIC (K. pneumoniae; alone, KPN UFR53, beta-lactamases TEM-1 IMP-1) was 4 µg/mL and the MIC (K. pneumoniae; alone, KPN UFR65, beta-lactamases TEM-1, SHV-11 KPC-2) was 16 µg/mL. It also gave an MIC (K. pneumoniae; alone, KPN UFR66, beta-lactamases TEM-1, SHV-11, CTX-M-15 KPC-2) of 8 µg/mL, an MIC (K. pneumoniae; alone, KPN UFR68, beta-lactamases TEM-1, SHV-11, CTX-M-15 KPC-3) of 8 µg/mL and an MIC (K. pneumoniae; alone, KPN UFR77, beta-lactamases CMY-2) of 4 µg/mL. For the same molecule, the MIC (K. pneumoniae; alone, KPN UFR79, beta-lactamases DHA-1 OXA-1) was 4 µg/mL, the MIC (K. pneumoniae; alone, KPN UFR80, beta-lactamases SHV-11 DHA-1 OXA-1) was 1 µg/mL and the MIC (K. pneumoniae; alone, KPN UFR81, beta-lactamases TEM-1, SHV-1 DHA-1 OXA-48) was 32 µg/mL. The MIC (E. aerogenes) was 8 µg/mL, the MIC (E. coli; ECO 180070, beta-lactamases TEM-1, CTX-M-15, read-out: MIC) was 1 µg/mL and the MIC (E. coli; ECO 190314, beta-lactamases CTX-M-1, read-out: MIC) was 0.5 µg/mL. For the same molecule, the MIC (E. coli; ECO 190317, beta-lactamases TEM-1, SHV-12, CTX-M-15 OXA-1, read-out: MIC) was 1 µg/mL, the MIC (E. coli; ECO 190457, beta-lactamases CTX-M-15 OXA-1, read-out: MIC) was 1 µg/mL and the MIC (E. coli; ECO 190549, beta-lactamases CTX-M-1, read-out: MIC) was 0.25 µg/mL. The MIC (E. coli; ECO 200159, beta-lactamases TEM-1, CTX-M-14, read-out: MIC) was 0.25 µg/mL, the MIC (E. coli; ECO 200259, beta-lactamases CTX-M-14, read-out: MIC) was 0.5 µg/mL and the MIC (E. coli; ECO 200344, beta-lactamases CTX-M-1, read-out: MIC) was 0.5 µg/mL. For the same molecule, the MIC (E. coli; ECO 260096, beta-lactamases CTX-M-132, read-out: MIC) was 4 µg/mL, the MIC (E. coli; ECO 260304, beta-lactamases CTX-M-15, read-out: MIC) was 1 µg/mL and the MIC (E. coli; ECO 260508, beta-lactamases TEM-1, CTX-M-15 OXA-1, read-out: MIC) was 2 µg/mL. The MIC (E. coli; ECO UFR16, beta-lactamases TEM-1, CTX-M-15 OXA-1 OXA-48, read-out: MIC) was 2 µg/mL, the MIC (E. coli; ECO UFR17, beta-lactamases TEM-1, CTX-M-15 CMY-2 OXA-1 OXA-181, read-out: MIC) was 4 µg/mL and the MIC (E. coli; ECO UFR18, beta-lactamases CTX-M-15 OXA-204, read-out: MIC) was 1 µg/mL. For the same molecule, the MIC (E. coli; ECO UFR19, beta-lactamases CTX-M-15 CMY-2 OXA-1 OXA-204, read-out: MIC) was 1 µg/mL, the MIC (E. coli; ECO UFR32, beta-lactamases TEM-1, VEB-1 OXA-10, read-out: MIC) was 1 µg/mL and the MIC (E. coli; ECO UFR39, beta-lactamases CTX-M-15 NDM-1, read-out: MIC) was 2 µg/mL. For the same molecule, the MIC (E. coli; ECO UFR41, beta-lactamases TEM-1, CTX-M-15 CMY-2 OXA-1 NDM-4, read-out: MIC) was 16 µg/mL, the MIC (E. coli; ECO UFR45, beta-lactamases TEM-1 CMY-4 OXA-1 OXA-48 VIM-1, read-out: MIC) was 0.5 µg/mL and the MIC (E. coli; ECO UFR52, beta-lactamases TEM-1, SHV-12 IMP-8, read-out: MIC) was 1 µg/mL. For the same molecule, the MIC (E. coli; ECO UFR61O, beta-lactamases TEM-1 KPC-2, read-out: MIC) was 1 µg/mL, the MIC (E. coli; ECO UFR62, beta-lactamases TEM-1, CTX-M-9 KPC-2, read-out: MIC) was 0.5 µg/mL and the MIC (E. coli; ECO UFR74, beta-lactamases SHV-1 DHA-1, read-out: MIC) was 2 µg/mL. The MIC (S. marcescens) was 16 µg/mL and the MIC (C. murliniae) was 4 µg/mL.
